Results taken from patent publication US9708314B2, “Heterocyclic amide compound” (NISSAN CHEMICAL INDUSTRIES, LTD., priority 2013, dated 2017).

Experiments:
Type in all cases: in vivo
[1] = system: Echinochloa oryzacola Vasing.; assay: Test Example 1: herbicidal activity, application before weed generation in submerged conditions; conditions: Application herbicide amount 320 g/ha; Seventeenth Table
Summary of the method: (§1)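 Pre-emergence water-surface application under 4 cm flooding, same day as sowing, with rice transplanted at 2.5 leaf stage. Dose given as g/ha. Plants grown at 25° C. to 30° C. and rated three weeks later on a 0 (≤5%) to 5 (≥90%) herbicidal-ratio scale.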

Monochoria vaginalis = assay: as above; conditions: Application herbicide amount 320 g/ha; Seventeenth Table
Summary of the method: as §1

Scirpus juncoides = assay: as above; conditions: Application herbicide amount 320 g/ha; Seventeenth Table
Summary of the method: as §1

[2] = system: transplanted Oryza sativa; assay: Test Example 1: effect on crop, application before weed generation in submerged conditions; conditions: Application herbicide amount 320 g/ha; Seventeenth Table
Summary of the method: as §1

Cyperus difformis = assay: Test Example 3: herbicidal effect by application to foliage (Wagner pot, water depth 0.1-0.5 cm); conditions: Nineteenth Table; for E (herbicidal effect grade): application to foliage
Summary of the method: (§2)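 Grading uses six bands of herbicidal ratio, from 0 (≤5%, almost no effect) to 5 (≥90%, almost completely withered). Treatment was a stem-and-leaf spray of diluted emulsion at a fixed g/ha on 14-day-old plants; evaluation after three weeks.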

[3] = system: Echinochloa crus-galli var. crus-galli; assay: as above; conditions: Nineteenth Table; for H (herbicidal effect grade): application to foliage
Summary of the method: as §2

Leptochloa chinensis = assay: as above; conditions: Nineteenth Table; for D (herbicidal effect grade): application to foliage
Summary of the method: as §2

[4] = system: directly sowed Oryza sativa; assay: Test Example 3: effect on crop by application to foliage (Wagner pot, water depth 0.1-0.5 cm); conditions: Nineteenth Table; for b (effect on crop grade): application to foliage
Summary of the method: as §2

Stellaria media = assay: Test Example 4: herbicidal effect by application to foliage (diluvial soil, plastic box); conditions: application to foliage, application herbicide amount 320 g/ha
Summary of the method: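 Seeds sown in sterilized diluvial soil, covered ~1.5 cm, grown 14 days in greenhouse at 25° C. to 30° C. Emulsion formulation diluted in water to set rate (g/ha) and sprayed onto stems and leaves. Effect scored visually 3 weeks later on 0–5 scale (5 = ≥90% herbicidal ratio, 0 = ≤5%).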

[5] = application herbicide amount 320 g/ha
[6] = application herbicide amount 400 g/ha

Row | Structure (SMILES) | A: Echinochloa oryzicola Vasing. (herbicidal effect grade) [1] | C: Monochoria vaginalis (herbicidal effect grade) (Monochoria vaginalis) | B: Scirpus juncoides (herbicidal effect grade) (Scirpus juncoides) | a: transplanted Oryza sativa (effect on crop grade) [2] | E (Cyperus difformis) herbicidal ratio grade (Cyperus difformis; [5]) | H (Echinochloa crus-galli var. crus-galli) herbicidal ratio grade [3, 5] | D (Leptochloa chinensis) herbicidal ratio grade (Leptochloa chinensis; [5]) | b (directly sowed Oryza sativa) effect on crop grade [4, 5] | P (Stellaria media) herbicidal effect (Stellaria media) | H (Echinochloa crus-galli var. crus-galli) herbicidal ratio grade [3, 6] | D (Leptochloa chinensis) herbicidal ratio grade (Leptochloa chinensis; [6]) | b (directly sowed Oryza sativa) effect on crop grade [4, 6] | E (Cyperus difformis) herbicidal ratio grade (Cyperus difformis; [6]) | E (herbicidal effect grade) (Cyperus difformis; [5]) | H (herbicidal effect grade) [3, 5] | D (herbicidal effect grade) (Leptochloa chinensis; [5]) | b (effect on crop grade) [4, 5]
1 | Cc1nnc(NC(=O)c2ccc(C(F)(F)F)n3c(COCC(F)(F)F)nnc23)o1 [1-020] | 4 (Herbicidal ratio of 70% or more and less than 90%) | 2 (Herbicidal ratio of 20% or more and less than 40%) | 3 (Herbicidal ratio of 40% or more and less than 70%) | 0 (Herbicidal ratio of 5% or less (almost no effect)) | 4 (Herbicidal ratio of 70% or more and less than 90%) | 5 (Herbicidal ratio of 90% or more (almost completely withered)) | 4 (Herbicidal ratio of 70% or more and less than 90%) | 2 (Herbicidal ratio of 20% or more and less than 40%) | 4 (Herbicidal ratio of 70% or more and less than 90%) | – | – | – | – | – | – | – | –
2 | Cc1nnc(NC(=O)c2ccc(C(F)(F)F)n3c(-c4ccccc4)nnc23)o1 [1-012] | 5 (Herbicidal ratio of 90% or more (almost completely withered)) | 4 (Herbicidal ratio of 70% or more and less than 90%) | 3 (Herbicidal ratio of 40% or more and less than 70%) | 0 (Herbicidal ratio of 5% or less (almost no effect)) | – | – | – | – | 4 (Herbicidal ratio of 70% or more and less than 90%) | 3 (Herbicidal ratio of 40% or more and less than 70%) | 5 (Herbicidal ratio of 90% or more (almost completely withered)) | 0 (Herbicidal ratio of 5% or less (almost no effect)) | – | – | – | – | –
3 | Cc1nnc(NC(=O)c2ccc(C(F)F)n3c(C(C)C)nnc23)o1 [1-053] | 2 (Herbicidal ratio of 20% or more and less than 40%) | 2 (Herbicidal ratio of 20% or more and less than 40%) | 3 (Herbicidal ratio of 40% or more and less than 70%) | 0 (Herbicidal ratio of 5% or less (almost no effect)) | 4 (Herbicidal ratio of 70% or more and less than 90%) | 4 (Herbicidal ratio of 70% or more and less than 90%) | 4 (Herbicidal ratio of 70% or more and less than 90%) | 0 (Herbicidal ratio of 5% or less (almost no effect)) | 2 (Herbicidal ratio of 20% or more and less than 40%) | – | – | – | – | – | – | – | –
4 | CCCc1nnc2c(C(=O)Nc3nnc(C)o3)ccc(C(F)(F)F)n12 [1-024] | 5 (Herbicidal ratio of 90% or more (almost completely withered)) | 0 (Herbicidal ratio of 5% or less (almost no effect)) | 2 (Herbicidal ratio of 20% or more and less than 40%) | 0 (Herbicidal ratio of 5% or less (almost no effect)) | 4 (Herbicidal ratio of 70% or more and less than 90%) | 5 (Herbicidal ratio of 90% or more (almost completely withered)) | 4 (Herbicidal ratio of 70% or more and less than 90%) | 2 (Herbicidal ratio of 20% or more and less than 40%) | 4 (Herbicidal ratio of 70% or more and less than 90%) | – | – | – | – | – | – | – | –
5 | COc1ccccc1-c1nnc2c(C(=O)Nc3nnc(C)o3)ccc(C(F)(F)F)n12 [1-047] | 4 (Herbicidal ratio of 70% or more and less than 90%) | 2 (Herbicidal ratio of 20% or more and less than 40%) | 3 (Herbicidal ratio of 40% or more and less than 70%) | 1 (Herbicidal ratio of 5% or more and less than 20%) | 4 (Herbicidal ratio of 70% or more and less than 90%) | 5 (Herbicidal ratio of 90% or more (almost completely withered)) | 5 (Herbicidal ratio of 90% or more (almost completely withered)) | 3 (Herbicidal ratio of 40% or more and less than 70%) | 4 (Herbicidal ratio of 70% or more and less than 90%) | – | – | – | – | – | – | – | –
6 | Cc1nnc(NC(=O)c2ccc(C(F)(F)F)n3c(C4CC4)nnc23)o1 [1-010] | 5 (Herbicidal ratio of 90% or more (almost completely withered)) | – | 3 (Herbicidal ratio of 40% or more and less than 70%) | 0 (Herbicidal ratio of 5% or less (almost no effect)) | – | – | – | – | 5 (Herbicidal ratio of 90% or more (almost completely withered)) | 5 (Herbicidal ratio of 90% or more (almost completely withered)) | 5 (Herbicidal ratio of 90% or more (almost completely withered)) | 0 (Herbicidal ratio of 5% or less (almost no effect)) | 4 (Herbicidal ratio of 70% or more and less than 90%) | – | – | – | –
7 | Cc1nnc(NC(=O)c2ccc(C(F)(F)F)n3c(C)nnc23)o1 [1-002] | 2 (Herbicidal ratio of 20% or more and less than 40%) | 0 (Herbicidal ratio of 5% or less (almost no effect)) | 1 (Herbicidal ratio of 5% or more and less than 20%) | 0 (Herbicidal ratio of 5% or less (almost no effect)) | – | – | – | – | 5 (Herbicidal ratio of 90% or more (almost completely withered)) | 4 (Herbicidal ratio of 70% or more and less than 90%) | 4 (Herbicidal ratio of 70% or more and less than 90%) | 0 (Herbicidal ratio of 5% or less (almost no effect)) | – | – | – | – | –
8 | CCOC(=O)Cc1nnc2c(C(=O)Nc3nnc(C)o3)ccc(C(F)(F)F)n12 [1-042] | 2 (Herbicidal ratio of 20% or more and less than 40%) | 2 (Herbicidal ratio of 20% or more and less than 40%) | 2 (Herbicidal ratio of 20% or more and less than 40%) | 0 (Herbicidal ratio of 5% or less (almost no effect)) | 4 (Herbicidal ratio of 70% or more and less than 90%) | 5 (Herbicidal ratio of 90% or more (almost completely withered)) | – | 1 (Herbicidal ratio of 5% or more and less than 20%) | 4 (Herbicidal ratio of 70% or more and less than 90%) | – | – | – | – | – | – | – | –
9 | Cc1nnc(NC(=O)c2ccc(C(F)(F)F)n3c(-c4cncs4)nnc23)o1 [1-058] | 5 (Herbicidal ratio of 90% or more (almost completely withered)) | 4 (Herbicidal ratio of 70% or more and less than 90%) | 5 (Herbicidal ratio of 90% or more (almost completely withered)) | 4 (Herbicidal ratio of 70% or more and less than 90%) | – | – | – | – | – | – | – | – | – | 5 (Herbicidal ratio of 90% or more (almost completely withered)) | 5 (Herbicidal ratio of 90% or more (almost completely withered)) | 5 (Herbicidal ratio of 90% or more (almost completely withered)) | 4 (Herbicidal ratio of 70% or more and less than 90%)
10 | C=CC[S+]([O-])c1nnc2c(C(=O)Nc3nnc(C)o3)ccc(C(F)(F)F)n12 (centres unmarked) [1-074] | 2 (Herbicidal ratio of 20% or more and less than 40%) | 0 (Herbicidal ratio of 5% or less (almost no effect)) | 2 (Herbicidal ratio of 20% or more and less than 40%) | 0 (Herbicidal ratio of 5% or less (almost no effect)) | – | – | – | – | – | – | – | – | – | 3 (Herbicidal ratio of 40% or more and less than 70%) | 5 (Herbicidal ratio of 90% or more (almost completely withered)) | 4 (Herbicidal ratio of 70% or more and less than 90%) | 0 (Herbicidal ratio of 5% or less (almost no effect))
11 | Cc1nnc(NC(=O)c2ccc(C(F)(F)F)n3c(CCS(C)(=O)=O)nnc23)o1 [1-085] | 3 (Herbicidal ratio of 40% or more and less than 70%) | 3 (Herbicidal ratio of 40% or more and less than 70%) | 4 (Herbicidal ratio of 70% or more and less than 90%) | 3 (Herbicidal ratio of 40% or more and less than 70%) | – | – | – | – | – | – | – | – | – | 5 (Herbicidal ratio of 90% or more (almost completely withered)) | 5 (Herbicidal ratio of 90% or more (almost completely withered)) | 5 (Herbicidal ratio of 90% or more (almost completely withered)) | 3 (Herbicidal ratio of 40% or more and less than 70%)
